{"source": "paper PMC5115179", "about": "(Pharmacology Research & Perspectives, 2016)", "key": {"[1]": {"assay": "NCS‐382–diclofenac interaction study (inhibition of NCS‐382 glucuronidation)", "conditions": "mouse; for AUC(0-t): both, in vivo, 25 mg/kg"}, "[2]": {"test_system": "gamma‐butyrolactone‐treated mice", "assay": "GBL‐mediated response protection by NCS‐382 in the absence and presence of diclofenac", "type": "in vivo", "conditions": "mouse; given alone i.p. (NCS‐382 300 mg/kg or diclofenac 25 mg/kg) 30 min before GBL 100 mg/kg i.p."}, "UGT1A9": {"test_system": "UGT1A9", "design": "method as in Miners et al. 1997; Ammon et al. 2000; King et al. 2001", "conditions": "ref Miners et al. 1997; Ammon et al. 2000; King et al. 2001; cited from earlier work"}, "UGT2B7": {"test_system": "UGT2B7", "design": "method as in Miners et al. 1997; Ammon et al. 2000; King et al. 2001", "conditions": "ref Miners et al. 1997; Ammon et al. 2000; King et al. 2001; cited from earlier work"}, "GHB binding sites": {"test_system": "GHB binding sites", "design": "method as in Wellendorph et al. 2009", "conditions": "ref Wellendorph et al. 2009; cited from earlier work"}, "[3]": {"test_system": "monocarboxylate transporter 1 (MCT1)", "design": "method as in Tamai et al. 1999; Wang and Morris 2007", "conditions": "ref Tamai et al. 1999; Wang and Morris 2007; cited from earlier work"}, "[4]": {"assay": "Excretion of NCS‐382 in urine and feces (metabolic cages)", "type": "in vivo", "conditions": "mouse, reanalyzed samples of study 1", "experimental": "To ensure sufficient volumes of urine could be collected in each of the 2 h time intervals (baseline, 0–2, 2–4, 4–6, 6–8 h), three mice were dosed simultaneously and their urine and feces pooled for analysis. The total dose in μg administered to the three animals was therefore used to calculate the percent of the dose excreted in the urine pooled from all three mice. Animals were allowed ad libitum access to food and water of which the intake of each was monitored.\nSamples (3 μL) were injected onto a Kinetex PFP (50 × 2.1 mm, 1.7 μm particle size) UPLC column and eluted with a binary gradient consisting of water with 0.1% formic acid (mobile phase A) and methanol with 0.1% formic acid (mobile phase B). […] Eluent was directed to waste for the initial 0.4 min then to an ABI Sciex 6500 Qtrap tandem mass spectrometer. […] Where necessary, samples were diluted in blank matrices for analysis.\nPharmacokinetic outcomes were obtained via standard noncompartmental methods using Kinetica (version 5.1, Thermo Fisher Scientific, Waltham, MA). The maximum concentration (C max) was obtained directly from the concentration–time profiles. Area under the concentration–time curve (AUC) from time zero to the last collected time point was determined using the trapezoidal method with linear up/log down interpolation."}, "[5]": {"conditions": "treatment Diclofenac 25 mg/kg alone"}, "[6]": {"conditions": "treatment NCS‐382 300 mg/kg + Diclofenac 25 mg/kg"}, "[7]": {"conditions": "treatment NCS‐382 300 mg/kg alone"}}}
{"smiles": "O=C(O)Cc1ccccc1Nc1c(Cl)cc(O)cc1Cl", "note": "[4‐OH‐Diclofenac, 4′‐hydroxydiclofenac]", "values": [{"measurement": "Sera AUC0–2 h [90% CI], relative quantification (peak area ratio)", "setting": "[1]; [5]", "value": "6.76 [5.18–8.33] PAR*h"}, {"measurement": "Sera AUC0–2 h [90% CI], relative quantification (peak area ratio)", "setting": "[1]; [6]", "value": "8.28 [7.60–8.97] PAR*h"}]}
{"smiles": "O=C(O)Cc1cc(O)ccc1Nc1c(Cl)cccc1Cl", "note": "[5‐OH‐Diclofenac, 5‐hydroxydiclofenac]", "values": [{"measurement": "AUC(0-t)", "setting": "[1]", "value": 61.3, "unit": "µM·h"}, {"measurement": "Brain AUC0–2 h [90% CI]", "setting": "[1]; [5]", "value": "4.60 [4.55–4.65] nmol g/tissue*h"}, {"measurement": "Brain AUC0–2 h [90% CI]", "setting": "[1]; [6]", "value": "5.20 [4.77–5.62] ^a nmol g/tissue*h"}]}
{"smiles": "O=C(Cc1ccccc1Nc1c(Cl)cccc1Cl)O[C@@H]1O[C@H](C(=O)O)[C@@H](O)[C@H](O)[C@H]1O", "note": "[Diclofenac glucuronide]", "values": [{"measurement": "Brain AUC0–2 h [90% CI], relative quantification (peak area ratio)", "setting": "[1]; [5]", "value": "5.87 [4.46–7.28] PAR*h"}, {"measurement": "Sera AUC0–2 h [90% CI], relative quantification (peak area ratio)", "setting": "[1]; [5]", "value": "8.57 [6.09–11.04] PAR*h"}, {"measurement": "Brain AUC0–2 h [90% CI], relative quantification (peak area ratio)", "setting": "[1]; [6]", "value": "3.96 [3.25–4.67] PAR*h"}, {"measurement": "Sera AUC0–2 h [90% CI], relative quantification (peak area ratio)", "setting": "[1]; [6]", "value": "4.67 [4.21–5.13] ^a PAR*h"}]}
{"smiles": "O=C(O)Cc1ccccc1Nc1c(Cl)cccc1Cl", "note": "[Diclofenac]", "values": [{"measurement": "time to loss of motor function compared to vehicle control", "setting": "[2]", "value": "did not have a measureable effect"}, {"measurement": "Ki", "setting": "UGT1A9", "value": 11, "unit": "µM"}, {"measurement": "Ki", "setting": "UGT2B7", "value": "[…]"}, {"measurement": "binding to GHB binding sites in rat brain", "setting": "GHB binding sites", "value": "ligand for the GHB binding sites in rat brain"}, {"measurement": "AUC(0-t)", "setting": "[1]", "value": 232, "unit": "µM·h"}, {"measurement": "Brain AUC0–2 h [90% CI]", "setting": "[1]; [5]", "value": "33.8 [28.2–39.4] nmol/g/tissue*h"}, {"measurement": "Brain AUC0–2 h [90% CI]", "setting": "[1]; [6]", "value": "44.9 [39.5–50.3] ^a nmol/g/tissue*h"}]}
{"smiles": "O=C(O)CCCO", "note": "[GHB, gamma‐hydroxybutyric acid]", "values": [{"measurement": "Km", "setting": "[3]", "value": "4.6 to 7.7", "unit": "mM"}]}
{"smiles": "O=C(O)/C=C1\\CCCc2ccccc2C1=O", "note": "[NCS dehydrogenation]", "values": [{"measurement": "detection of NCS‐382 metabolites in urine and feces", "setting": "[4]", "value": "found in neither"}, {"measurement": "Sera AUC0–2 h [90% CI], relative quantification (peak area ratio)", "setting": "[1]; [6]", "value": "2.72 [2.26–3.18] ^a PAR*h"}, {"measurement": "Sera AUC0–2 h [90% CI], relative quantification (peak area ratio)", "setting": "[1]; [7]", "value": "1.99 [1.82–2.16] PAR*h"}]}
{"smiles": "O=C(O)/C=C1\\CCCc2ccccc2C1O[C@@H]1O[C@H](C(=O)O)[C@@H](O)[C@H](O)[C@H]1O", "note": "(stereo partly shown) [NCS‐Glucuronide]", "values": [{"measurement": "detection of NCS‐382 metabolites in urine and feces", "setting": "[4]", "value": "detectable in both the urine and feces"}, {"measurement": "Brain AUC0–2 h [90% CI], relative quantification (peak area ratio)", "setting": "[1]; [6]", "value": "4.58 [3.61–5.55] PAR*h"}, {"measurement": "Sera AUC0–2 h [90% CI], relative quantification (peak area ratio)", "setting": "[1]; [6]", "value": "2.86 [2.55–3.18] PAR*h"}, {"measurement": "Brain AUC0–2 h [90% CI], relative quantification (peak area ratio)", "setting": "[1]; [7]", "value": "3.28 [2.53–4.03] PAR*h"}, {"measurement": "Sera AUC0–2 h [90% CI], relative quantification (peak area ratio)", "setting": "[1]; [7]", "value": "3.65 [2.65–4.65] PAR*h"}]}
